Reference: patent US20230035578A1, “CONTROLLED RELEASE OF COMPOUNDS” (TECHNISCHE UNIVERSITAET MUENCHEN, priority 2019, published 2023)
Where a name gives a salt, the structure may show the parent alone.

Assay: Drug release from surface-bound mucin layer on PDMS (UV absorbance)
Format: physicochemical
Method: The coupling reaction was performed as described previously^9. Briefly, PDMS was treated with O2 plasma at 0.4 mbar pressure and an intensity of 30 W for 90 s. The plasma treatment replaces the […] groups on the polymer surface with hydroxyl groups, which enables a covalent attachment of silane molecules. The silane was used as a coupling agent to further allow for attaching porcine gastric mucin to the surface via carbodiimide coupling. Thus, we here used N-[3-Trimethoxysilyl)propyl]ethylenediamine triacetic acid trisodium salt (TMS-EDTA, abcr, Karlsruhe, Germany), which carries three carboxy groups on the other end. TMS-EDTA was diluted to a final concentration of 0.1% (w/v) in 10 mM Acetate buffer (pH=4.5). The activated PDMS samples were then incubated in the silane solution for 5 h at 60° C. Afterwards, the samples were washed in 80% ethanol (Carl Roth) for 1 h to remove unbound residues before they were placed in the oven at 60° C. for another 60 min to stabilize the bond between the PDMS and the silane.
In the next step, the carboxyl groups of the silane were activated. Therefore, the surface was covered with 100 mM MES buffer (pH=5.0) containing 5 mM 1-Ethyl-3-(3-dimethylaminopropyl)-carbodiimid-hydrochloride (EDC, Carl Roth) and 5 mM N-Hydroxysulfosuccinimide (sulfo-NHS, abcr) at RT for 30 min. Afterwards, the EDC-NHS solution was replaced by phosphate-buffered saline (pH=7.4, Lonza, Velviers, Belgium) containing 0.1% (w/v) of purified mucin and stored at 4° C. overnight. Amine groups from the mucin protein core then react with the EDC activated groups of the silane and form a stable covalent bond.
PDMS was allowed to crosslink at 60° C. overnight. Afterwards, this PDMS layer was coated with mucin as described in Section 1.2.
The mucin layer was loaded with the drug by incubating it in a drug-containing solution (TCL or VAC, 0.5 mg/mL) at 4° C. overnight. […] […] Before starting the release experiment, excessive glycerol, drug, and salt were removed and replaced by 2 mL of ultrapure water.
The […], and the release of TCL was tracked spectroscopically with a specord210 spectral photometer (Analytikjena, Jena, Germany) at 360 nm. The amount of released drug was determined by a standard curve which was generated by measuring serial dilutions of a drug solution (see FIG. 1). The release of VAN was also tracked spectroscopically, however, at 282 nm (for calibration curve, see FIG. 2).

Compound: CN[C@H](CC(C)C)C(=O)N[C@H]1C(=O)N[C@@H](CC(N)=O)C(=O)N[C@H]2C(=O)N[C@H]3C(=O)N[C@H](C(=O)N[C@H](C(=O)O)c4cc(O)cc(O)c4-c4cc3ccc4O)[C@H](O)c3ccc(c(Cl)c3)Oc3cc2cc(c3O[C@@H]2O[C@H](CO)[C@@H](O)[C@H](O)[C@H]2O[C@H]2C[C@](C)(N)[C@H](O)[C@H](C)O2)Oc2ccc(cc2Cl)[C@H]1O [Vancomycin, Vancomycin hydrochloride]
- CTCL, vancomycin release (Group 1: glycerol, Mg^2+, trigger 150 mM NaCl, time 0 h): 0.0014 ± 0.0010 mg/mL
- CTCL, vancomycin release (Group 1: glycerol, Mg^2+, trigger 150 mM NaCl, time 0.5 h): 0.0051 ± 0.0029 mg/mL
- CTCL, vancomycin release (Group 1: glycerol, Mg^2+, trigger 150 mM NaCl, time 1.0 h): 0.0083 ± 0.0042 mg/mL
- CTCL, vancomycin release (Group 1: glycerol, Mg^2+, trigger 150 mM NaCl, time 2.0 h): 0.0098 ± 0.0031 mg/mL
- CTCL, vancomycin release (Group 1: glycerol, Mg^2+, trigger 150 mM NaCl, time 3.0 h): 0.0097 ± 0.0029 mg/mL
- CTCL, vancomycin release (Group 2: glycerol, Mg^2+, water, time 0 h): 0.0008 ± 0.0008 mg/mL
- CTCL, vancomycin release (Group 2: glycerol, Mg^2+, water, time 0.5 h): 0.0008 ± 0.0011 mg/mL
- CTCL, vancomycin release (Group 2: glycerol, Mg^2+, water, time 1.0 h): 0.0022 ± 0.0007 mg/mL
- CTCL, vancomycin release (Group 2: glycerol, Mg^2+, water, time 2.0 h): 0.0007 ± 0.0009 mg/mL
- CTCL, vancomycin release (Group 2: glycerol, Mg^2+, water, time 3.0 h): 0.0012 ± 0.0006 mg/mL
- CTCL, vancomycin release (Group 3: no condensation, Mg^2+, trigger 150 mM NaCl, time 0 h): 0.0018 ± 0.0008 mg/mL
- CTCL, vancomycin release (Group 3: no condensation, Mg^2+, trigger 150 mM NaCl, time 0.5 h): 0.0024 ± 0.0010 mg/mL
- CTCL, vancomycin release (Group 3: no condensation, Mg^2+, trigger 150 mM NaCl, time 1.0 h): 0.0034 ± 0.0009 mg/mL
- CTCL, vancomycin release (Group 3: no condensation, Mg^2+, trigger 150 mM NaCl, time 2.0 h): 0.0034 ± 0.0003 mg/mL
- CTCL, vancomycin release (Group 3: no condensation, Mg^2+, trigger 150 mM NaCl, time 3.0 h): 0.0034 ± 0.0003 mg/mL
- CTCL, vancomycin release (Group 4: no condensation, no stabilization, trigger 150 mM NaCl, time 0 h): 0.0033 ± 0.0022 mg/mL
- CTCL, vancomycin release (Group 4: no condensation, no stabilization, trigger 150 mM NaCl, time 0.5 h): 0.0034 ± 0.0014 mg/mL
- CTCL, vancomycin release (Group 4: no condensation, no stabilization, trigger 150 mM NaCl, time 1.0 h): 0.0022 ± 0.0005 mg/mL
- CTCL, vancomycin release (Group 4: no condensation, no stabilization, trigger 150 mM NaCl, time 2.0 h): 0.0011 ± 0.0010 mg/mL
- CTCL, vancomycin release (Group 4: no condensation, no stabilization, trigger 150 mM NaCl, time 3.0 h): 0.0013 ± 0.0011 mg/mL
- release after exposure to physiological trigger (Mg^2+, 150 mM NaCl): release was observed
- release where the trigger was absent (Mg^2+, no trigger): almost no release was observed
